Source: patent US20120322827A1, “COMPOUNDS AND METHODS” (priority 2010, published 2012)

Target: T1, Recombinant HDAC9 isoform 4 (Homo sapiens, UniProt Q9UKV0)
T1 construct: purchased BPS Bioscience
Assay: Histone Deacetylase 9 (HDAC9) inhibition assay, fluorogenic substrate
Type: biochemical
Conditions: mean of a minimum of 2 experiments; 11 point 3x dilution series from 100 uM; 45 minutes incubation at room temperature; read-out: mean pIC50 of HDAC9 inhibition (converted)
Text: Histone Deacetylase 9 (HDAC9) Inhibition Assay:
Novel histone deacetylase 9 (HDAC9) inhibitors were characterized in an in vitro biochemical functional assay. The assay measures the increased fluorescent signal due to deacetylation, by HDAC9, of a fluorogenic substrate. The commercial available substrate is Class IIa HDAC-specific and contains an acetylated lysine residue and would releases the fluorescent signal upon trypsin cleavage after deacetylation.
Specifically, test compounds diluted to various concentrations in 100% DMSO are first dispensed into 384-well assay plates. Recombinant HDAC9 isoform 4 (purchased from BPS Bioscience) in complete assay buffer (50 mM Tris-HCl, pH 8.0, 137 mM NaCl, 2.7 mM KCl, 1 mM MgCl2, 0.05% BSA & 0.005% Tween 20) were then added to each well (5 uL/well) using Multidrop Combi (Thermo Scientific), followed by 5 uL/well substrate (purchased from BPS Bioscience, 4.5 uM final). After 45 minutes incubation at room temperature, 10 uL 2× developer solution (assay buffer with 40 uM Trypsin and 20 uM Trichostatin A) was added. The plates were then incubated 1 hour at room temperature before reading in fluorescent intensity mode at 450 nm in an Envision (Perkin Elmer) plate reader. Percent Inhibition of HDAC9 activity by compounds in each test wells was calculated by normalizing to fluorescent signal in control wells containing DMSO only.
For dose response experiments, normalized data were fit by ABASE/XC50 using the equation y=a+(b−a)/(1+(10̂×/10̂c)̂d), where a is the minimum % activity, b is the maximum % activity, c is the pIC50, d is the Hill slope.

T1 sequence (Q9UKV0 1-1066 isoform Q9UKV0-5): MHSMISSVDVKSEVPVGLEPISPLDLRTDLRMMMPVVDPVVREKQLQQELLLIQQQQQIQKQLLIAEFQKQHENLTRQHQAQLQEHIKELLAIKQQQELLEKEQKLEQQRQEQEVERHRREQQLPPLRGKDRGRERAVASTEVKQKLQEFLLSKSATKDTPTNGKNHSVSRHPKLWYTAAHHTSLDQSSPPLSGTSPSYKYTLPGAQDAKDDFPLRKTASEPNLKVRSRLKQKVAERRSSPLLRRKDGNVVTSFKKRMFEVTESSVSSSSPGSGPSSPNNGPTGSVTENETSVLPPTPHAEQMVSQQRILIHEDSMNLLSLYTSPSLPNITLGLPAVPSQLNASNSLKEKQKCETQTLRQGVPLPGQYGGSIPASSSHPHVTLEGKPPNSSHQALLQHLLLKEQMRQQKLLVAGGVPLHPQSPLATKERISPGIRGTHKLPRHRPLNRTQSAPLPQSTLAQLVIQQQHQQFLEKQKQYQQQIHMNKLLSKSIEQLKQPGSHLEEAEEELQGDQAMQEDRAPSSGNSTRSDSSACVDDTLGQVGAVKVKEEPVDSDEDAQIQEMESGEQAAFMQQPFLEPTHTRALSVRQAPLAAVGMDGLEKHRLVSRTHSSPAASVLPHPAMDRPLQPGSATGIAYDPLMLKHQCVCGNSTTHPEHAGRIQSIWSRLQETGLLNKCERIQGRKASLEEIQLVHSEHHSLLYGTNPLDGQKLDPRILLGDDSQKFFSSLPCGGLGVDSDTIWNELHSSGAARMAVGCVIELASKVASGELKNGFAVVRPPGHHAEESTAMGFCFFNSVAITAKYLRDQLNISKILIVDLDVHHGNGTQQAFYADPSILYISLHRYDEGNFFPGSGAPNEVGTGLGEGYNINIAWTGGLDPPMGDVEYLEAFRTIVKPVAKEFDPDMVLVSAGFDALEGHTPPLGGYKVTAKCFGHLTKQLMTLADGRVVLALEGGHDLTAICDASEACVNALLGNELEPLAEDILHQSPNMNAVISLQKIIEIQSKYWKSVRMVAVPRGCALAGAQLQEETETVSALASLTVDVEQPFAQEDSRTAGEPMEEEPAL

Row | IC50 | Structure (SMILES)
1 | < 1000 nM | CC(C)(CNC(=O)CCCc1noc(C(F)(F)F)n1)c1coc(-c2ccc(F)cc2)n1 [Example 3, N-(2-(2-(4-Fluorophenyl)oxazol-4-yl)-2-methylpropyl)-4-(5-(trifluoromethyl)-1,2,4-oxadiazol-3-yl)butanamide]
2 | < 1000 nM | CN(C)CCC(CNC(=O)CCCc1noc(C(F)(F)F)n1)c1coc(-c2ccc(F)cc2)n1 (stereo not shown) [Example 4, N-(4-(Dimethylamino)-2-(2-(4-fluorophenyl)oxazol-4-yl)butyl)-4-(5-(trifluoromethyl)-1,2,4-oxadiazol-3-yl)butanamide]
3 | < 1000 nM | CN(C)CCC(CNC(=O)CCCc1ccc(C(=O)C(F)(F)F)s1)c1coc(-c2ccc(F)cc2)n1 (stereo not shown) [Example 18, N-(4-(Dimethylamino)-2-(2-(4-fluorophenyl)oxazol-4-yl)butyl)-4-(5-(2,2,2-trifluoroacetyl)thiophen-2-yl)butanamide]

Row | Structure (SMILES) | IC50
4 | CN1CCC(CNC(=O)CCCc2noc(C(F)(F)F)n2)(c2coc(-c3ccc(F)cc3)n2)CC1 [Example 5, N-((4-(2-(4-Fluorophenyl)oxazol-4-yl)-1-methylpiperidin-4-yl)methyl)-4-(5-(trifluoromethyl)-1,2,4-oxadiazol-3-yl)butanamide] | < 1000 nM
